The test deals with T1, Menin MLL 4-43 (Homo sapiens, UniProt O00255).
T1 sequence (O00255 1-610): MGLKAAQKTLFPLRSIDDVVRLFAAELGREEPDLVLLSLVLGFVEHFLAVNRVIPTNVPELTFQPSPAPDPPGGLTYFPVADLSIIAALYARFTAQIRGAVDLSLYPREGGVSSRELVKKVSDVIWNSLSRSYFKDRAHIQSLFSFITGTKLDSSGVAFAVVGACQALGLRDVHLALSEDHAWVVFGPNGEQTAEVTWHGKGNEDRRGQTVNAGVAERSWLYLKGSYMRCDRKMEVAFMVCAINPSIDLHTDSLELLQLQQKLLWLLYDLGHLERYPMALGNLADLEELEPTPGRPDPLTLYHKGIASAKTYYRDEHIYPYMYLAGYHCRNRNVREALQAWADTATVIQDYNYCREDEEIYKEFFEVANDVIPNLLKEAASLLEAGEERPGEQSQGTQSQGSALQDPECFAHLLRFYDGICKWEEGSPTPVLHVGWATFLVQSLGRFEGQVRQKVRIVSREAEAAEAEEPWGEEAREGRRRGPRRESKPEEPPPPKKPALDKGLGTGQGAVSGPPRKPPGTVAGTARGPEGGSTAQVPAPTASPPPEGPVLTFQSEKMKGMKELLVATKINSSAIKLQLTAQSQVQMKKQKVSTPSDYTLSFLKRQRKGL
The test can be described thus: Fluorescence polarization (FP) competition assay of the menin-MLL interaction. It counts as binding. The conditions noted are these: fluorescence polarization assay; read-out: Menin MLL 4-43 IC50.

Here are results for 37 molecules from patent publication US11673898B2, “Substituted inhibitors of menin-MLL and methods of use” (Kura Oncology, Inc., priority 2016, dated 2023).

A value given as a limit tells only on which side of the number the result lay.

Consider `Cc1nc(NC2CCN(Cc3ccc4c(cc(C#N)n4C[C@H](C)N4CCN(S(=O)(=O)C5CC5)CC4)c3C)CC2)c2cc(CC(F)(F)F)sc2n1` [Compound 146], for which the IC50 was 50 to 250 nM.

On to `Cc1c(CN2CCC(Nc3nc(N)nc4sc(CC(F)(F)F)cc34)CC2)ccc2c1cc(C#N)n2C[C@H](C)N1CCN(S(=O)(=O)C2CC2)CC1` [Compound 147], for which the IC50 was less than 50 nM. The value for `Cc1c(CN2CCC(Nc3ncnc4sc(CC(F)(F)F)cc34)CC2)ccc2c1cc(C#N)n2C[C@H](C)N1CCNCC1` [Compound 148] was less than 50 nM; that for `Cc1c(CN2CCC(Nc3nc(N)nc4sc(CC(F)(F)F)cc34)CC2)ccc2c1cc(C#N)n2C[C@H](C)N1CCN(S(=O)(=O)CF)CC1` [Compound 149] was less than 50 nM. In the case of `Cc1c(CN2CCC(Nc3ncnc4sc(CC(F)(F)F)cc34)CC2)ccc2c1cc(C#N)n2C[C@H](C)N1CCN(P(C)(C)=O)CC1` [Compound 150], the 50% inhibitory concentration (IC50) lay in the range of 50 to 250 nM. As to `Cc1c(CN2CCC(Nc3ncnc4sc(CC(F)(F)F)cc34)CC2)ccc2c1cc(C#N)n2C[C@H](C)N1C[C@@H](C)N(S(=O)(=O)CF)[C@@H](C)C1` [Compound 152], the IC50 fell in the range of 50 to 250 nM. The value for `[2H]C1([2H])N([C@@H](C)Cn2c(C#N)cc3c(C)c(CN4CCC(Nc5ncnc6sc(CC(F)(F)F)cc56)CC4)ccc32)C([2H])([2H])C([2H])([2H])N(S(C)(=O)=O)C1([2H])[2H]` [Compound 153] was 50 to 250 nM; that for `Cc1c(CN2CCC(Nc3ncnc4sc(CC(F)(F)F)cc34)CC2)ccc2c1cc(C#N)n2C[C@H](C)N1CCN(CC(N)=O)CC1` [Compound 154] was less than 50 nM. To `Cc1c(CN2CCC(Nc3ncnc4sc(CC(F)(F)F)cc34)CC2)ccc2c1cc(C#N)n2C[C@H](C)N1CCN(C(C)C(N)=O)CC1` (stereo partly shown) [Compound 156] belongs 50 to 250 nM; to `Cc1c(CN2CCC(Nc3ncnc4sc(CC(F)(F)F)cc34)CC2)ccc2c1cc(C#N)n2C[C@H](C)N1CCC(NP(C)(C)=O)CC1` [Compound 157], 20 to 1000 nM; to `Cc1c(CN2CCC(Nc3nc(N)nc4sc(CC(F)(F)F)cc34)CC2)ccc2c1cc(C#N)n2C[C@H](C)N1CCC(S(C)(=O)=O)CC1` [Compound 158], less than 50 nM. To `C[C@@H](Cn1c(C#N)cc2cc(CN3CCC(Nc4ncnc5sc(CC(F)(F)F)cc45)CC3)c(O)cc21)N1CCN(C=O)CC1` [Compound 159] belongs 50 to 250 nM. With `C[C@@H](Cn1c(C#N)cc2cc(CN3CCC(Nc4ncnc5sc(CC(F)(F)F)cc45)CC3)c(O)cc21)N1CCN(S(C)(=O)=O)CC1` [Compound 160], the IC50 fell in the range of 50 to 250 nM. To `[2H]C1([2H])N(C(C)Cn2c(C#N)cc3c(C)c(CN4CCC(Nc5ncnc6sc(CC(F)(F)F)cc56)CC4)ccc32)C([2H])([2H])C([2H])([2H])N(S(C)(=O)=O)C1([2H])[2H]` (stereo not shown) [Compound 161] belongs 50 to 250 nM; to `Cc1c(CN2CCC(Nc3ncnc4sc(CC(F)(F)F)cc34)CC2)ccc2c1cc(C#N)n2C[C@H](C)N1CCN(S(C)(=O)=O)[C@@H](C(N)=O)C1` [Compound 164], 50 to 250 nM; to `Cc1c(CN2CCC(Nc3nc(N)nc4sc(CC(F)(F)F)cc34)CC2)ccc2c1cc(C#N)n2C[C@H](C)N1CCN(C(C)C)CC1` [Compound 166], less than 50 nM. To `Cc1c(CN2CCC(Nc3nc(N)nc4sc(CC(F)(F)F)cc34)CC2)ccc2c1cc(C#N)n2C[C@@H](C)N1CCN(S(C)(=O)=O)CC1` [Compound 167] belongs 50 to 250 nM. The value for `Cc1c(CN2CCC(Nc3nc(N)nc4sc(CC(F)(F)F)cc34)CC2)ccc2c1cc(C#N)n2C[C@H](C)N1CCC(F)(F)CC1` [Compound 168] was 50 to 250 nM; that for `Cc1c(CN2CCC(Nc3ncnc4sc(CC(F)(F)F)cc34)CC2)ccc2c1cc(C#N)n2CC(C)N1CC(NS(C)(=O)=O)C1` (stereo not shown) [Compound 169] was 20 to 1000 nM.

As for `Cc1c(CN2CCC(Nc3nc(N(C)C)nc4sc(CC(F)(F)F)cc34)CC2)ccc2c1cc(C#N)n2C[C@H](C)N1CCN(S(C)(=O)=O)CC1` [Compound 170], the IC50 was more than 1000 nM.

Regarding `Cc1c(CN2CCC(Nc3nc(C4CC4)nc4sc(CC(F)(F)F)cc34)CC2)ccc2c1cc(C#N)n2C[C@H](C)N1CCN(S(C)(=O)=O)CC1` [Compound 173], the IC50 fell in the range of 20 to 1000 nM.

Consider `Cc1nc(NC2CCN(Cc3ccc4c(cc(C#N)n4C[C@H](C)N4CCN(CC(N)=O)CC4)c3C)CC2)c2cc(CC(F)(F)F)sc2n1` [Compound 178], for which the IC50 was less than 50 nM. To `Cc1c(CN2CCC(Nc3nc(N)nc4sc(CC(F)(F)F)cc34)CC2)ccc2c1cc(C#N)n2C[C@H](C)N1C[C@@H](C)N(S(C)(=O)=O)[C@H](C)C1` [Compound 179] belongs 50 to 250 nM; to `Cc1c(CN2CCC(Nc3nc(N)nc4sc(CC(F)(F)F)cc34)CC2)ccc2c1cc(C#N)n2C[C@@H](C)N1C[C@@H](C)N(S(C)(=O)=O)[C@H](C)C1` [Compound 180], 50 to 250 nM; to `CNc1nc(NC2CCN(Cc3ccc4c(cc(C#N)n4C[C@H](C)N4CCN(CC(N)=O)CC4)c3C)CC2)c2cc(CC(F)(F)F)sc2n1` [Compound 182], less than 50 nM. As for `CNS(=O)(=O)C1CCN([C@@H](C)Cn2c(C#N)cc3c(C)c(CN4CCC(Nc5nc(N)nc6sc(CC(F)(F)F)cc56)CC4)ccc32)CC1` [Compound 184], the IC50 was less than 50 nM.

For `CNc1nc(NC2CCN(Cc3ccc4c(cc(C#N)n4C[C@H](C)N4CCC(S(=O)(=O)NC)CC4)c3C)CC2)c2cc(CC(F)(F)F)sc2n1` [Compound 185], the IC50 was 50 to 250 nM. The value for `CNS(=O)(=O)C1CCN([C@@H](C)Cn2c(C#N)cc3c(C)c(CN4CCC(Nc5nc(C)nc6sc(CC(F)(F)F)cc56)CC4)ccc32)CC1` [Compound 186] was less than 50 nM; that for `Cc1c(CN2CCC(Nc3nc(N)nc4sc(CC(F)(F)F)cc34)CC2)ccc2c1cc(C#N)n2C[C@H](C)N1CCN(S(=O)(=O)CCO)CC1` [Compound 187] was less than 50 nM; that for `Cc1c(CN2CCC(Nc3nc(N)nc4sc(CC(F)(F)F)cc34)CC2)ccc2c1cc(C#N)n2C[C@H](C)N1CCOCC1` [Compound 188] was 50 to 250 nM. As for `CNC(=O)CN1CCN([C@@H](C)Cn2c(C#N)cc3c(C)c(CN4CCC(Nc5nc(NC)nc6sc(CC(F)(F)F)cc56)CC4)ccc32)CC1` [Compound 189], the IC50 was less than 50 nM. The value for `Cc1c(CN2CCC(Nc3nc(N)nc4sc(CC(F)(F)F)cc34)CC2)ccc2c1cc(C#N)n2C[C@H](C)N1CCN(C2CC2)CC1` [Compound 190] was 50 to 250 nM.

Regarding `CNc1nc(NC2CCN(Cc3ccc4c(cc(C#N)n4C[C@H](C)N4CCN(CC(=O)N(C)C)CC4)c3C)CC2)c2cc(CC(F)(F)F)sc2n1` [Compound 191], the IC50 is less than 50 nM. On to `CNc1nc(NC2CCN(Cc3ccc4c(cc(C#N)n4C[C@H](C)N4CCN(S(=O)(=O)NC)CC4)c3C)CC2)c2cc(CC(F)(F)F)sc2n1` [Compound 192], for which the IC50 was less than 50 nM. To `CNc1nc(NC2CCN(Cc3ccc4c(cc(C#N)n4C[C@H](C)N4CCC(S(C)(=O)=O)CC4)c3C)CC2)c2cc(CC(F)(F)F)sc2n1` [Compound 193] belongs less than 50 nM; to `CNc1nc(NC2CCN(Cc3cc4cc(C#N)n(C[C@H](C)N5CCN(S(C)(=O)=O)CC5)c4cc3O)CC2)c2cc(CC(F)(F)F)sc2n1` [Compound 194], less than 50 nM; to `CNc1nc(NC2CCN(Cc3ccc4c(cc(C#N)n4C[C@H](C)N4CCC(F)(F)CC4)c3C)CC2)c2cc(CC(F)(F)F)sc2n1` [Compound 195], 50 to 250 nM.

Usually IC50 stands for the concentration needed to halve the response being measured.
